The record followed here is paper PMC3766616, “Coniferyl Ferulate, a Strong Inhibitor of Glutathione S-Transferase Isolated from Radix Angelicae sinensis, Reverses Multidrug Resistance and Downregulates P-Glycoprotein” (Evidence-based Complementary and Alternative Medicine : eCAM, 2013).

Usually IC50 stands for the concentration that gives 50% inhibition.

The target of this experiment is T1, Glutathione S-transferase (mainly GSTP1-1, from human placenta) (Homo sapiens, UniProt P09211).
T1 construct: GST from human placenta (mainly GSTP1-1), Sigma
Put plainly: GSH/CDNB conjugation assay at […] nm; Hanes plot kinetics. It counts as biochemical.

T1 sequence (P09211 2-210): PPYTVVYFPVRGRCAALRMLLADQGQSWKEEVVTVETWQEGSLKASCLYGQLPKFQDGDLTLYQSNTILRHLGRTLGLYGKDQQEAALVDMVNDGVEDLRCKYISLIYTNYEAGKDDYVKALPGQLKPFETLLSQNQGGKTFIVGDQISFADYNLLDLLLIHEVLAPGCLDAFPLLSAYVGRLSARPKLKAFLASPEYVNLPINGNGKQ

Take `COc1cc(/C=C/COC(=O)/C=C/c2ccc(O)c(OC)c2)ccc1O` [CF, Coniferyl ferulate]: it took 0.3 µM to reach half-maximal inhibition (IC50). This lies in the sub-micromolar range.
